Experimental data: patent US10092541B2, “Methods for the treatment of diseases ameliorated by PDE4 inhibition using dosage titration of apremilast” (CELGENE CORPORATION, priority 2014, dated 2018)
Marks after values point to notes of the source that are not given here.

How the values were obtained:
[1] = system: patients with moderate to severe plaque psoriasis; experiment: Esteem 1: randomized, double-blind, placebo controlled, multicenter clinical study in psoriasis; assay type: in vivo, human; conditions: for PASI-75, %: primary endpoint
Experimental: (§1) In the study 844 patients were enrolled; patients ranged in age from 18 to 83 years, with an overall median age of 46 years. The mean baseline body surface area (BSA) involvement was 25.19% (median 21.0%), the mean baseline PASI score was 19.07 (median 16.80), and the proportion of patients with sPGA score of 3 (moderate) and 4 (severe) at Baseline were 70.0% and 29.8%, respectively. Patients were randomized to Apremilast, in an amount of 30 mg twice per day (after the initial dose titration schedule) or placebo for the first 16 weeks, and from Weeks 16 to 32, all patients received Apremilast in an amount of 30 mg twice per day.
(§2) Target Dose: 30 mg (po) BID
(§3) Day 1: 10 mg in the morning
(§4) Day 2: 10 mg morning; 10 mg after noon
(§5) Day 3: 10 mg morning; 20 mg after noon
(§6) Day 4: 20 mg morning; 20 mg after noon
(§7) Day 5: 20 mg morning; 30 mg after noon
(§8) During the Randomized Treatment Withdrawal Phase (Weeks 32-52), patients originally randomized to Apremilast who achieved at least a 75% reduction in PASI score (PASI-75) at Week 32 were re-randomized to either placebo or Apremilast 30 mg BID. Patients who were re-randomized to placebo and who lost PASI-75 response at Week 32 compared to Baseline, were retreated with Apremilast 30 mg BID.

[2] = system: patients with moderate to severe plaque psoriasis; experiment: Esteem 2: randomized, double-blind, placebo controlled, multicenter clinical study in psoriasis; assay type: in vivo, human; conditions: for PASI-75, % (LOCF): primary endpoint; for sPGA score 0 (clear) or 1 (almost clear), % (LOCF): with ≥2-point reduction from baseline
Experimental: as §1, with “413” for “844”, “Apremilast” for “Apremilast,”
as §2, §3, §4, §5, §6, §7
as §8, with “50%” for “75%”, “(PASI-50)” for “(PASI-75) at Week 32”, “50% of the improvement in PASI” for “PASI-75 response”

[3] = 77 PASI 75 responders re-randomized to apremilast 30 mg BID at Week 32
[4] = Week 16, 30 mg twice daily, n = 562, LOCF
[5] = Week 16, 30 mg twice daily, n = 562, LOCF, listed as Apremilast
[6] = Week 16, 30 mg twice daily, patients with baseline DLQI >5, n = 459
[7] = Week 16, 30 mg twice daily, patients with nail psoriasis at baseline, n = 363
[8] = 61 patients with ≥PASI-50 at Week 32 re-randomized to apremilast
[9] = Week 16, 30 mg BID, n = 274, LOCF
[10] = Week 16, 30 mg BID, n = 274, LOCF, listed as Apremilast
[11] = Week 16, 30 mg BID, n = 274, listed as Apremilast

`CCOc1cc([C@@H](CS(C)(=O)=O)N2C(=O)c3cccc(NC(C)=O)c3C2=O)ccc1OC` [apremilast, (+)-2-[1-(3-ethoxy-4-methoxyphenyl)-2-methylsulfonylethyl]-4-acetylaminoisoindoline-1,3-dione] was tested, and the “Non-overlapping confidence intervals vs placebo in mean percentage improvement in PASI from baseline, first detected” value ([1]; 30 mg twice daily) was “as early as Week 2”, the “Responses to apremilast from Weeks 16 to 32” value ([1]; 30 mg twice daily) was “generally maintained” and the “regained PASI 75 response after re-treatment, %” value ([1]; 64 patients re-randomized to placebo who re-initiated apremilast before Week 52 after losing PASI 75) was 70.3%. The “PASI-75 response at Week 52, %” value [1, 3] was 61.0%, the “at least 70% improvement in PASI score from baseline at Week 52, %” value [1, 3] was 75.3% and the “Mean change in DLQI score” value [1, 4] was −6.6. The “PASI-50, %” value [1, 4] was “(58.7%)*”, the “PASI-90, %” value [1, 4] was “(9.8%)*” and the “Percentage change in PASI score, mean (SD)” value [1, 4] was −52.1%. The “Percentage change in PASI score, median (range)” value [1, 4] was −59.0%, the “sPGA response (score 0 or 1 with at least two-point reduction), %” value [1, 4] was 21.7% and the “sPGA response (score 0 or 1 with at least two-point reduction), %” value [1, 5] was “(21.7%)*”. For the same compound, the “PASI-75, %” value [1, 4] was 33.1%, the “PASI-75, %” value [1, 5] was “(33.1%)*” and the “DLQI + PASI-50 response, %” value [1, 6] was “(48.1%)*”. The “DLQI response (decrease of at least five points), %” value [1, 6] was “(70.2%)*”, the “NAPSI-50, %” value [1, 7] was “(33.3%)*” and the “Percentage change in NAPSI score, mean (SD)” value [1, 7] was −22.5%. The “ScPGA score 0-1, %” value ([1]; Week 16, 30 mg twice daily, patients with scalp psoriasis (ScPGA at least 3) at baseline, n = 374) was “(46.5%)*”, the “Severity of the majority of adverse events” value ([1]; did not lead to discontinuation) was “mild to moderate” and the “5 most common adverse events (AEs)” value ([1]; human, in vivo) was “diarrhea, nausea, upper respiratory tract infection, tension headache, and headache”. For the same compound, the “Discontinuation due to upper respiratory tract infection” value ([1]; human, in vivo) was “No patient discontinued”, the “Discontinuations due to AEs: diarrhea” value ([1]; human, in vivo) was 0.8% and the “Discontinuations due to AEs: headache” value ([1]; human, in vivo) was 0.4%. The “Discontinuations due to AEs: nausea” value ([1]; human, in vivo) was 1.2%, the “Discontinuations due to AEs: tension headache” value ([1]; human, in vivo) was 0.2% and the “Mean percentage change from baseline in PASI score at Week 52” value ([1]; patients re-randomized to apremilast 30 mg BID at Week 32) was 80.5%. The “Median time to first loss of PASI 75 after re-randomization” value ([1]; patients re-randomized to apremilast at Week 32) was 17.7 weeks, the “signs and symptoms of psoriasis” value ([1]; study conclusion) was “significantly improved” and the “Non-overlapping confidence intervals vs placebo in improvement in pruritus and skin discomfort/pain from baseline, first detected” value ([2]; 30 mg BID) was “as early as Week 2”. The “Non-overlapping confidence intervals vs placebo in mean percentage improvement in PASI from baseline, first detected” value ([2]; 30 mg BID, first post-baseline visit) was “as early as Week 2”, the “regained PASI-50 response after re-treatment” value ([2]; 32 patients re-randomized to placebo who lost 50% of PASI improvement and re-initiated apremilast before Week 52) was 65.6% and the “PASI-75 at Week 52” value ([2]; 36 patients re-randomized to apremilast who were also PASI-75 responders at Week 32) was 66.7%. The “PASI-50 response at Week 52” value [2, 8] was 80.3%, the “mean percent change in PASI at Week 52” value [2, 8] was −74.4% and the “≥70% improvement from baseline in PASI score at Week 52” value [2, 8] was 60.7%. The “decrease in pruritus severity from baseline” value ([2]; Week 16, 30 mg BID) was ~50%, the “decrease in skin discomfort/pain severity from baseline” value ([2]; Week 16, 30 mg BID) was ~50% and the “PASI-50, % (LOCF)” value ([2]; Week 16, 30 mg BID, n = 274) was 55.5%. The “PASI-50, % (NRI)” value ([2]; Week 16, 30 mg BID, n = 274) was 53.6* %, the “PASI-75, % (NRI)” value ([2]; Week 16, 30 mg BID, n = 274) was 28.1* % and the “PASI-90, % (LOCF)” value ([2]; Week 16, 30 mg BID, n = 274) was 8.8%. The “sPGA score 0 (clear) or 1 (almost clear), % (NRI)” value ([2]; Week 16, 30 mg BID, n = 274) was 19.7* %, the “Mean % change in PASI score” value [2, 9] was −50.9% and the “Mean change in DLQI score” value [2, 9] was −6.7*. For the same compound, the “Mean change in pruritus VAS score, mm” value [2, 9] was −33.5 mm, the “Mean change in skin discomfort/pain VAS score, mm” value [2, 9] was −28.5 mm and the “Median % change in PASI score” value [2, 9] was −56.0%. For the same compound, the “Mean % change in PASI score” value [2, 10] was −50.9* %, the “Mean change in pruritus VAS score, mm” value [2, 10] was −33.5* mm and the “Mean change in skin discomfort/pain VAS score, mm” value [2, 10] was −28.5* mm. For the same compound, the “PASI-50, % (LOCF)” value [2, 11] was 55.5* %, the “PASI-90, % (LOCF)” value [2, 11] was 8.8^‡ % and the “PASI-75, % (LOCF)” value ([2]; Week 16, 30 mg BID, n = 274) was 28.8%. The “PASI-75, % (LOCF)” value [2, 11] was 28.8* %, the “sPGA score 0 (clear) or 1 (almost clear), % (LOCF)” value ([2]; Week 16, 30 mg BID, n = 274) was 20.4% and the “sPGA score 0 (clear) or 1 (almost clear), % (LOCF)” value [2, 11] was 20.4* %.
